Common to all, as to experiment: NCI anticancer screen, dose series, 48 h
The subject of assay [1] is A549.
The subject of assay [2] is CAKI-1.
For assay [3], the system named is HCT-116.
Assay [4] relates to HCT-15.
The test system of assay [5] is IGROV-1.
Assay [6] concerns KM12.
The test system of assay [7] is LOX IMVI.
Assay [8] has as its system MDA-N.
Assay [9] relates to NCI-H23.
Assay [10] concerns NCI-H522.
The test system of assay [11] is SK-MEL-28.
Assay [12] deals with SK-MEL-2.
The test system of assay [13] is SN12C.
Assay [14] relates to SNB-75.
The test system of assay [15] is T47D.
The test system of assay [16] is TK-10.
For assay [17], the system named is UACC-257.
Assay [18] relates to UACC-62.
For assay [19], the system named is SF-268.
Assay [20] has as its system HOP-92.

Molecules are shown by their SMILES.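 These data come from cells grown in 96-well plates and exposed to compound for 48 hours at five concentrations. GI50 marks 50% less growth.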 Calls of active or inactive are those of the source. Cut-off read from the data, not from the text of the source: active = GI50 up to about 1.1 µM and inactive = higher.

For `O=C(O)C/C(=C\c1ccco1)C(=O)O`, the GI50 in assay [1] is > 100 µM (inactive); in [2], > 100 µM (inactive); in assay [3] it was > 100 µM (inactive); in [4], over 100 µM; in [5] it was > 100 µM (inactive); in [6], > 100 µM (inactive). The GI50 in assay [7], in assay [8], in assay [9], in [10], in assay [11] and in [12] was > 100 µM (inactive) in each case. The GI50 in assay [13], in assay [14], in assay [15], in assay [16], in assay [17] and in assay [18] was > 100 µM (inactive) in each case.

In the case of `O=C(/C=C/c1ccsc1)c1ccc(Cl)s1`, the GI50 in [1] is > 100 µM (inactive); in [2], > 100 µM (inactive); in [3], 25.4 µM (inactive); in [4] it was 43.5 µM; in assay [5], > 100 µM (inactive); in [6], 19.5 µM (inactive). In addition, the GI50 in assay [7] is 19.4 µM (inactive); in assay [8] it was 56.6 µM (inactive); in assay [9] it was 82.8 µM (inactive); in [19] it was 67.5 µM (inactive); in assay [11] it was 55.1 µM (inactive); in [12] it was > 100 µM (inactive). Besides, the GI50 in [13] was 75.3 µM (inactive); in [14], > 100 µM (inactive); in [15], > 100 µM (inactive); in [16] it was > 100 µM (inactive); in assay [17], > 100 µM (inactive); in assay [18], > 100 µM (inactive).

In the case of `CCC/N=C(/NC(=O)c1ccc(Cl)cc1)SC`, the GI50 is > 100 µM (inactive) in assay [1]; > 100 µM (inactive) in assay [2]; > 100 µM (inactive) in [3]; 47.9 µM in [4]; > 100 µM (inactive) in assay [5]; > 100 µM (inactive) in assay [6]. For the same molecule, the GI50 in assay [7] was > 100 µM (inactive); in assay [8] it was > 100 µM (inactive); in assay [9], 46.3 µM (inactive); in [10], 52 µM (inactive); in assay [19], 88.9 µM (inactive); in assay [11], > 100 µM (inactive). In addition, the GI50 in assay [12] was > 100 µM (inactive); in [13], > 100 µM (inactive); in [14], 11.4 µM (inactive); in assay [15] it was 65.9 µM (inactive); in assay [17], 74.5 µM (inactive); in assay [18], > 100 µM (inactive).

Consider `CC(=O)OC1C2CCC1C1C2N=NN1c1ccc([N+](=O)[O-])cc1` (stereo not given), for which the GI50 is > 100 µM (inactive) in assay [1]; > 100 µM (inactive) in assay [3]; over 100 µM in assay [4]; > 100 µM (inactive) in assay [20]; > 100 µM (inactive) in assay [5]; > 100 µM (inactive) in assay [6]. The GI50 is > 100 µM (inactive) in [7]; > 100 µM (inactive) in assay [9]; 64.4 µM (inactive) in [10]; > 100 µM (inactive) in assay [19]; > 100 µM (inactive) in assay [11]; > 100 µM (inactive) in assay [12]. In addition, the GI50 in assay [13], in [14], in [15], in assay [16], in assay [17] and in assay [18] was > 100 µM (inactive) throughout.

With `CNC(c1ccncc1)C(NC)c1ccncc1` (stereo not given), the GI50 is > 100 µM (inactive) in [1]; > 100 µM (inactive) in assay [2]; > 100 µM (inactive) in [3]; over 100 µM in assay [4]; > 100 µM (inactive) in [5]; > 100 µM (inactive) in assay [6]. Besides, the GI50 in assay [7], in assay [8], in assay [9], in assay [10], in [19] and in assay [11] was > 100 µM (inactive) each time. For the same molecule, the GI50 in [12], in assay [13], in assay [14], in assay [15], in [16] and in assay [17] was > 100 µM (inactive) each time. For the same molecule, the GI50 in assay [18] is > 100 µM (inactive).

For the molecule `CN1N=C(c2ccncc2)OC1c1cccc(C(F)(F)F)c1` (stereo not given), the GI50 in assay [1] was > 100 µM (inactive); in assay [3] it was 67.1 µM (inactive); in [4] it was over 100 µM; in assay [5] it was > 100 µM (inactive); in assay [6] it was > 100 µM (inactive); in [7], > 100 µM (inactive). Further, the GI50 in [8], in [9], in assay [10], in assay [19], in assay [11] and in assay [12] was > 100 µM (inactive) each time. Besides, the GI50 is > 100 µM (inactive) in [13]; 4.36 µM (inactive) in [14]; 96.6 µM (inactive) in assay [15]; > 100 µM (inactive) in [16]; > 100 µM (inactive) in assay [17]; > 100 µM (inactive) in assay [18].

`CCCCCCNC(=O)c1cnc(Cl)cn1`: the GI50 in assay [1] is 13.8 µM (inactive); in assay [2] it was 1.17 µM (inactive); in assay [3] it was 17.1 µM (inactive); in assay [4], 2.55 µM; in [20], 3.15 µM (inactive); in assay [5], 10.5 µM (inactive). Also, the GI50 in [6] was 15.9 µM (inactive); in assay [7] it was 14.6 µM (inactive); in [9], 11.1 µM (inactive); in assay [10], 0.206 µM (active); in [19], 14.3 µM (inactive); in [11], 24 µM (inactive). Moreover, the GI50 in assay [12] was 14.7 µM (inactive); in [13], 13.3 µM (inactive); in assay [14] it was 21 µM (inactive); in assay [15], 20 µM (inactive); in assay [16] it was 22.4 µM (inactive); in assay [17], 14.3 µM (inactive). Also, the GI50 in assay [18] is 17.2 µM (inactive).

As for `[O-][n+]1cn[n+]([O-])c2ccccc21`, the GI50 in [1] was 39.6 µM (inactive); in assay [2] it was 18.9 µM (inactive); in assay [3], 13.3 µM (inactive); in assay [4], 16.4 µM; in [5], 11.2 µM (inactive); in assay [6] it was 19.5 µM (inactive). Besides, the GI50 was 23.9 µM (inactive) in assay [7]; 20.1 µM (inactive) in assay [8]; 65.3 µM (inactive) in assay [9]; 15.1 µM (inactive) in assay [10]; 33.2 µM (inactive) in [19]; > 100 µM (inactive) in [11]. The GI50 in [12] was 27.4 µM (inactive); in [13], 38.3 µM (inactive); in [14], 66.5 µM (inactive); in assay [15], 5.97 µM (inactive); in assay [16] it was > 100 µM (inactive); in [17], 16.9 µM (inactive). In addition, in assay [18], the GI50 is 16.3 µM (inactive).

`O=C1C=CC(=O)N1n1c(-c2ccccc2)n[nH]c1=O`: the GI50 was > 100 µM (inactive) in assay [1]; > 100 µM (inactive) in [2]; > 100 µM (inactive) in [3]; over 100 µM in assay [4]; > 100 µM (inactive) in [5]; > 100 µM (inactive) in assay [8]. In addition, the GI50 in assay [9], in assay [10], in [19], in [12], in assay [13] and in [15] was > 100 µM (inactive) in each case. Besides, the GI50 in assay [16], in [17] and in assay [18] was > 100 µM (inactive) each time.

`O=C(Nc1ccccc1)c1cc2c(cc1Cl)SC(NNCCO)=NS2(=O)=O`: the GI50 in assay [2] was > 100 µM (inactive); in [3] it was > 100 µM (inactive); in [4], over 100 µM; in assay [20] it was > 100 µM (inactive); in assay [5] it was > 100 µM (inactive); in [6], > 100 µM (inactive). Moreover, the GI50 in assay [7] is > 100 µM (inactive); in assay [9] it was > 100 µM (inactive); in assay [19], > 100 µM (inactive); in [11], > 100 µM (inactive); in assay [12], > 100 µM (inactive); in [14] it was 99.5 µM (inactive). For the same molecule, the GI50 in assay [15], in assay [16], in assay [17] and in assay [18] was > 100 µM (inactive) in each case.

Regarding `Clc1ccc(C(c2ccc(Cl)cc2)c2cncnc2)cc1`, the GI50 in assay [1] was 20.5 µM (inactive); in [2], 18.6 µM (inactive); in [3], 13.9 µM (inactive); in [4], 19.6 µM; in assay [5] it was 16 µM (inactive); in assay [6], 18.3 µM (inactive). The GI50 in assay [7] is 15.8 µM (inactive); in [8], 14.2 µM (inactive); in assay [9] it was 15.9 µM (inactive); in assay [10] it was 17.2 µM (inactive); in assay [19] it was 17.8 µM (inactive); in [11] it was 18.5 µM (inactive). Besides, the GI50 in assay [13] is 18.4 µM (inactive); in assay [15], 16.6 µM (inactive); in assay [16] it was 16.9 µM (inactive); in [17] it was 19.3 µM (inactive); in assay [18] it was 15.2 µM (inactive).

The values are drawn from ChEMBL document CHEMBL1201862, “PubChem BioAssay data set” (2004).
